According to patent US9210927B2, “Pesticidal compositions and processes related thereto” (Dow AgroSciences LLC, priority 2013, dated 2015):
Where two headings read alike, the source gives them in different places.

How the values were obtained:
BAW (Spodoptera exigua) = test: Bioassays on Beet Armyworm (BAW), 128-well diet tray assay; assay type: in vivo; conditions: Spodoptera exigua, 168 h, read-out: BAW Rating
In short: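 Second-instar larvae (one to five per well) placed on artificial diet treated with 50 μg/cm^2 compound in 90:10 acetone-water, eight wells per compound. Held covered at 25° C., 14:10 light-dark for five to seven days; percent mortality averaged across wells.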

CEW (Helicoverpa zea) = test: Bioassays on Corn Earworm (CEW), 128-well diet tray assay; assay type: in vivo; conditions: Helicoverpa zea, 168 h; percent mortality, second instar larvae, 50 μg/cm^2 on artificial diet, five to seven days, 25° C.; read-out: CEW Rating
In short: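 Second-instar larvae (one to five per well) placed on artificial diet treated with 50 μg/cm^2 compound in 90:10 acetone-water and dried, eight wells per compound. Held 25 °C, 14:10 light-dark, five to seven days; percent mortality scored per well and averaged.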

GPA (Myzus persicae) = test: Bioassays on Green Peach Aphid (GPA), foliar spray on cabbage seedlings; assay type: in vivo; conditions: 72 h, corrected % control (Abbott), 200 ppm spray on cabbage seedlings, three days, read-out: GPA Rating
Method: Bioassays on Green Peach Aphid (“GPA”) (Myzus persicae) Certain molecules disclosed in this document were tested against GPA using procedures described in the following example. In the reporting of the results, the “GPA Rating Table” was used (See Table Section). Cabbage seedlings grown in 3-inch pots, with 2-3 small (3-5 cm) true leaves, were used as test substrate. The seedlings were infested with 20-50 GPA (wingless adult and nymph stages) one day prior to chemical application. Four pots with individual seedlings were used for each treatment. Test compounds (2 mg) were dissolved in 2 mL of acetone/MeOH (1:1) solvent, forming stock solutions of 1000 ppm test compound. The stock solutions were diluted 5× with 0.025% Tween 20 in H2O to obtain the solution at 200 ppm test compound. A hand-held aspirator-type sprayer was used for spraying a solution to both sides of […] leaves until runoff. Reference plants (solvent check) were sprayed with the diluent only containing 20% by volume of acetone/MeOH (1:1) solvent. Treated plants were held in a holding room for three days at approximately 25° C. and ambient relative humidity (RH) prior to grading. Evaluation was conducted by counting the number of live aphids per plant under a microscope. Percent Control was measured by using Abbott's correction formula (W. S. Abbott, “A Method of Computing the Effectiveness of an Insecticide” J. Econ. Entomol. 18 (1925), pp. 265-267) as follows. Corrected % Control=100*(X−Y)/X • where • X=No. of live aphids on solvent check plants and • Y=No. of live aphids on treated plants The results are indicated in the table entitled “Table 3: Assay Results” (See Table Section).

CL (Trichoplusia ni) = test: Bioassays on Cabbage Looper (CL), 128-well diet tray assay; assay type: in vivo; conditions: 168 h, percent mortality, second instar larvae, 50 μg/cm^2 on artificial diet, five to seven days, 25° C., read-out: CL Rating
Method: Bioassays on Beet Armyworm (“BAW”) and Corn Earworm (“CEW”) and Cabbage Looper (“CL”)
Certain molecules disclosed in this document were tested against BAW and CEW and CL using procedures described in the following examples. In the reporting of the results, the “BAW & CEW & CL Rating Table” was used (See Table Section).
Bioassays on CL (Trichoplusia ni)
Bioassays on CL were conducted using a 128-well diet tray assay. One to five second instar CL larvae were placed in each well (3 mL) of the diet tray that had been previously filled with 1 mL of artificial diet to which 50 μg/cm^2 of the test compound (dissolved in 50 μL of 90:10 acetone-water mixture) had been applied (to each of eight wells) and then allowed to dry. Trays were covered with a clear self-adhesive cover, and held at 25° C., 14:10 light-dark for five to seven days. Percent mortality was recorded for the larvae in each well; activity in the eight wells was then averaged. The results are indicated in the table entitled “Table 3A: Assay Results” (See Table Section).

[1] = percent mortality, second instar larvae, 50 μg/cm^2 on artificial diet, five to seven days, 25° C.

Compound	melting point [°C]	pest or weed control at 50 µg/cm2 (BAW (Spodoptera exigua)) [%]	pest or weed control at 50 µg/cm2 (CEW (Helicoverpa zea)) [%]	pest or weed control at 200 ppm (GPA (Myzus persicae)) [%]	pest or weed control at 50 µg/cm2 (BAW (Spodoptera exigua); [1]) [%]	pest or weed control at 50 µg/cm2 (CL (Trichoplusia ni)) [%]
NC(=O)c1ccc(/C=C/C(c2cc(Cl)cc(Cl)c2)C(F)(F)F)cc1 (stereo not drawn) [AC2]	110 to 112	–	–	–	–	–
O=C(NCc1ccc(/C=C/C(c2cc(Cl)c(F)c(Cl)c2)C(F)(F)F)cc1Cl)C1CC1 (stereo not drawn) [CC15]	–	50 to 100	50 to 100	0 to 80	–	–
O=C(NCc1ccc(/C=C/C(c2ccc(Cl)c(Cl)c2)C(F)(F)F)cc1Cl)C1CC1 (stereo not drawn) [CC17]	–	50 to 100	50 to 100	0 to 80	–	–
O=C(CC(F)(F)F)NCc1ccc(/C=C/C(c2ccc(Cl)c(Cl)c2)C(F)(F)F)cc1Cl (stereo not drawn) [CC18]	–	50 to 100	50 to 100	0 to 80	–	–
CSCCC(=O)NCc1ccc(/C=C/C(c2cc(Cl)c(Cl)c(Cl)c2)C(F)(F)F)cc1Cl (stereo not drawn) [CC19]	–	50 to 100	50 to 100	0 to 80	–	–
O=C(NCc1ccc(/C=C/C(c2cc(Cl)c(Cl)c(Cl)c2)C(F)(F)F)cc1C(F)(F)F)C1CC1 (stereo not drawn) [CC22]	–	50 to 100	50 to 100	0 to 80	–	–
O=C(NCc1ccc(/C=C/C(c2cc(Cl)c(Cl)c(Cl)c2)C(F)(F)F)cc1C(F)(F)F)c1cccnc1 (stereo not drawn) [CC23]	–	50 to 100	50 to 100	0 to 80	–	–
O=C(CC(F)(F)F)NCc1ccc(/C=C/C(c2cc(Cl)c(Cl)c(Cl)c2)C(F)(F)F)cc1Br (stereo not drawn) [CC25]	–	50 to 100	50 to 100	0 to 80	–	–
O=C(C1CC1)N(Cc1ccccn1)Cc1ccc(/C=C/C(c2cc(Cl)c(Cl)c(Cl)c2)C(F)(F)F)cc1C(F)(F)F (stereo not drawn) [CC29, (E)-N-(Pyridin-2-ylmethyl)-N-(4-(4,4,4-trifluoro-3-(3,4,5-trichlorophenyl)but-1-enyl)-2-(trifluoromethyl)benzyl)cyclopropanecarboxamide]	–	50 to 100	50 to 100	0 to 80	–	–
CCNC(=O)NCc1ccc(/C=C/C(c2cc(Cl)c(Cl)c(Cl)c2)C(F)(F)F)cc1C(F)(F)F (stereo not drawn) [CC32]	–	50 to 100	50 to 100	0 to 80	–	–
CCNC(=O)NCc1ccc(/C=C/C(c2cc(Cl)c(Cl)c(Cl)c2)C(F)(F)F)cc1Br (stereo not drawn) [CC33]	–	50 to 100	50 to 100	0 to 80	–	–
O=C(NCc1ccc(/C=C/C(c2cc(Cl)c(Cl)c(Cl)c2)C(F)(F)F)cc1Cl)N1CCOCC1 (stereo not drawn) [CC34]	–	50 to 100	50 to 100	0 to 80	–	–
FC(F)(F)C(/C=C/c1ccc(CNc2ccccn2)c(Cl)c1)c1cc(Cl)c(Cl)c(Cl)c1 (stereo not drawn) [CC43, (E)-N-(2-Chloro-4-(4,4,4-trifluoro-3-(3,4,5-trichlorophenyl)but-1-en-1-yl)benzyl)pyridin-2-amine]	–	50 to 100	0 to 50	0 to 80	–	–
O=C(CC(F)(F)F)NCc1ncc(/C=C/C(c2cc(Cl)c(Cl)c(Cl)c2)C(F)(F)F)cc1Cl (stereo not drawn) [CC44, (E)-N-((3-Chloro-5-(4,4,4-trifluoro-3-(3,4,5-trichlorophenyl)-but-1-en-1-yl)pyridin-2-yl)methyl)-3,3,3-trifluoropropanamide]	–	50 to 100	50 to 100	0 to 80	–	–
CCNC(=O)N(C)NC(=O)c1ccc(/C=C/C(c2cc(Cl)c(Cl)c(Cl)c2)C(F)(F)F)cc1Br (stereo not drawn) [Compound F1, (E)-2-(2-Bromo-4-(4,4,4-trifluoro-3-(3,4,5-trichlorophenyl)but-1-en-1-yl)benzoyl)-N-ethyl-1-methylhydrazinecarboxamide]	–	–	–	–	50 to 100	50 to 100
O=C(NCC(F)(F)F)NNC(=O)c1ccc(/C=C/C(c2cc(Cl)c(Cl)c(Cl)c2)C(F)(F)F)cc1Br (stereo not drawn) [Compound F7, (E)-2-(2-Bromo-4-(4,4,4-trifluoro-3-(3,4,5-trichlorophenyl)but-1-en-1-yl)benzoyl)-N-(2,2,2-trifluoroethyl)hydrazinecarboxamide]	–	–	–	–	50 to 100	50 to 100
FC(F)(F)C(/C=C/c1ccc(-n2cncn2)cc1)c1ccc(Cl)c(Cl)c1 (stereo not drawn) [DC12]	–	50 to 100	50 to 100	0 to 80	–	–
COc1c(Cl)cc(C(/C=C/c2ccc(-n3cncn3)c(C#N)c2)C(F)(F)F)cc1Cl (stereo not drawn) [DC34]	–	50 to 100	50 to 100	0 to 80	–	–
N#Cc1cc(/C=C/C(c2cc(Cl)c(F)c(Cl)c2)C(F)(F)F)ccc1-n1cncn1 (stereo not drawn) [DC35]	–	50 to 100	50 to 100	0 to 80	–	–
CN(NC(=O)c1ccc(/C=C/C(c2cc(Cl)c(Cl)c(Cl)c2)C(F)(F)F)cc1Br)C(=O)NCC(F)(F)F (stereo not drawn) [FA1]	–	–	–	–	50 to 100	50 to 100
CN(NC(=O)c1ccc(/C=C/C(c2cc(Cl)c(Cl)c(Cl)c2)C(F)(F)F)cc1C(F)(F)F)C(=O)NCC(F)(F)F (stereo not drawn) [FA2]	–	–	–	–	50 to 100	50 to 100
CN(NC(=O)c1ccc(/C=C/C(c2cc(Br)cc(Br)c2)C(F)(F)F)cc1C(F)(F)F)C(=O)NCC(F)(F)F (stereo not drawn) [FA4]	–	–	–	–	50 to 100	50 to 100
CN(NC(=O)c1ccc(/C=C/C(c2cc(Br)c(Cl)c(Br)c2)C(F)(F)F)cc1C(F)(F)F)C(=O)NCC(F)(F)F (stereo not drawn) [FA5]	–	–	–	–	50 to 100	50 to 100
CN(NC(=O)c1ccc(/C=C/C(c2cc(Cl)c(Br)c(Cl)c2)C(F)(F)F)cc1C(F)(F)F)C(=O)NCC(F)(F)F (stereo not drawn) [FA6]	–	–	–	–	50 to 100	50 to 100
CN(NC(=O)c1ccc(/C=C/C(c2cc(Cl)c(F)c(Cl)c2)C(F)(F)F)cc1C(F)(F)F)C(=O)NCC(F)(F)F (stereo not drawn) [FA7]	–	–	–	–	50 to 100	50 to 100
CN(NC(=O)c1ccc(/C=C/C(c2cc(Cl)c(Cl)c(Cl)c2)C(F)(F)F)cc1C(F)(F)F)C(=O)NCC(F)F (stereo not drawn) [FA8]	–	–	–	–	50 to 100	50 to 100
CN(NC(=O)c1ccc(/C=C/C(c2cc(Cl)c(Cl)c(Cl)c2)C(F)(F)F)cc1C(F)(F)F)C(=O)NCCC(F)(F)F (stereo not drawn) [FA9]	–	–	–	–	50 to 100	50 to 100
